{
  "source": "patent EP3064205A1",
  "about": "“Therapeutic use of isomeric forms of 2-(4-chlorophenyl)quinolin-4-yl)(piperidin-2-yl)methanol” (Glionova AB, priority 2015, dated 2016)",
  "assay_in_all_cases": "3D clonogenic assay (PDX)",
  "assay_type_in_all_cases": "cell-based, human",
  "key": {"[1]": {"system": "BXF 439", "settings": "BXF 439, Bladder; for IC50: Homo sapiens", "procedure,_shortened": "(§1)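 PDX tumors from NMRI nu/nu mice were enzymatically dissociated into cell suspensions and plated in soft agar. After 24 h, cells received continuous exposure to 10 concentrations (50 µM down to 0.0015 µM, in duplicate) for 8–13 days at 37 °C. Colonies >50 µm were stained with INT tetrazolium and counted by automated imaging; IC50 values came from 4-parameter fits.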"}, "[2]": {"system": "CXF 1783", "settings": "CXF 1783, Colorectal; for IC50: Homo sapiens", "procedure,_shortened": "as §1"}, "[3]": {"system": "CXF 676", "settings": "CXF 676, Colorectal; for IC50: Homo sapiens", "procedure,_shortened": "as §1"}, "[4]": {"system": "HNXF 908", "settings": "HNXF 908, Head and Neck; for IC50: Homo sapiens", "procedure,_shortened": "as §1"}, "[5]": {"system": "LXFA 526", "settings": "LXFA 526, Lung Adeno; for IC50: Homo sapiens", "procedure,_shortened": "as §1"}, "[6]": {"system": "LXFA 623", "settings": "LXFA 623, Lung Adeno; for IC50: Homo sapiens", "procedure,_shortened": "as §1"}, "[7]": {"system": "OVXF 899", "settings": "OVXF 899, Ovarian; for IC50: Homo sapiens", "procedure,_shortened": "as §1"}, "[8]": {"system": "PAXF 2045", "settings": "PAXF 2045, Pancreas; for IC50: Homo sapiens", "procedure,_shortened": "as §1"}, "[9]": {"system": "PAXF 2053", "settings": "PAXF 2053, Pancreas; for IC50: Homo sapiens", "procedure,_shortened": "as §1"}, "[10]": {"system": "PRXF PC-3M", "settings": "Prostate; for IC50: Homo sapiens", "procedure,_shortened": "as §1"}, "[11]": {"system": "RXF 616", "settings": "RXF 616, Renal; for IC50: Homo sapiens", "procedure,_shortened": "as §1"}, "[12]": {"system": "SXFS 627", "settings": "SXFS 627, Sarcoma Soft Tissue; for IC50: Homo sapiens", "procedure,_shortened": "as §1"}},
  "note": "Like-named read-outs stand apart in the source and are kept apart here.",
  "data": [
    {"smiles": "O[C@H](c1cc(-c2ccc(Cl)cc2)nc2ccccc12)[C@@H]1CCCCN1", "note": "[S1, (R)-(2-(4-chlorophenyl)quinolin-4-yl)((S)-piperidin-2-yl)methanol]", "values": [
      {"measurement": "b (bottom plateau of concentration-effect curve)", "setting": "[1]", "result": 34},
      {"measurement": "t (top plateau of concentration-effect curve)", "setting": "[1]", "result": 95},
      {"measurement": "IC50", "setting": "[1]; read-out: abs. IC50", "result": 14, "unit": "µM"},
      {"measurement": "IC50", "setting": "[1]; read-out: rel. IC50", "result": 12.8, "unit": "µM"},
      {"measurement": "b (bottom plateau of concentration-effect curve)", "setting": "[2]", "result": 42},
      {"measurement": "t (top plateau of concentration-effect curve)", "setting": "[2]", "result": 100},
      {"measurement": "IC50", "setting": "[2]; read-out: abs. IC50", "result": 9.26, "unit": "µM"},
      {"measurement": "IC50", "setting": "[2]; read-out: rel. IC50", "result": 8.81, "unit": "µM"},
      {"measurement": "b (bottom plateau of concentration-effect curve)", "setting": "[3]", "result": 19},
      {"measurement": "t (top plateau of concentration-effect curve)", "setting": "[3]", "result": 105},
      {"measurement": "IC50", "setting": "[3]; read-out: abs. IC50", "result": 8.92, "unit": "µM"},
      {"measurement": "IC50", "setting": "[3]; read-out: rel. IC50", "result": 8.78, "unit": "µM"},
      {"measurement": "b (bottom plateau of concentration-effect curve)", "setting": "[4]", "result": 17},
      {"measurement": "t (top plateau of concentration-effect curve)", "setting": "[4]", "result": 90},
      {"measurement": "IC50", "setting": "[4]; read-out: abs. IC50", "result": 5.19, "unit": "µM"},
      {"measurement": "IC50", "setting": "[4]; read-out: rel. IC50", "result": 5.12, "unit": "µM"},
      {"measurement": "IC50", "setting": "[5]; read-out: abs. IC50", "result": 3.23, "unit": "µM"},
      {"measurement": "IC50", "setting": "[5]; read-out: rel. IC50", "result": 2.91, "unit": "µM"},
      {"measurement": "b (bottom plateau of concentration-effect curve)", "setting": "[5]", "result": 10},
      {"measurement": "t (top plateau of concentration-effect curve)", "setting": "[5]", "result": 96},
      {"measurement": "IC50", "setting": "[6]; read-out: abs. IC50", "result": 4.63, "unit": "µM"},
      {"measurement": "IC50", "setting": "[6]; read-out: rel. IC50", "result": 4.62, "unit": "µM"},
      {"measurement": "b (bottom plateau of concentration-effect curve)", "setting": "[6]", "result": 10},
      {"measurement": "t (top plateau of concentration-effect curve)", "setting": "[6]", "result": 92},
      {"measurement": "IC50", "setting": "[7]; read-out: abs. IC50", "result": 6.38, "unit": "µM"},
      {"measurement": "IC50", "setting": "[7]; read-out: rel. IC50", "result": 6.16, "unit": "µM"},
      {"measurement": "b (bottom plateau of concentration-effect curve)", "setting": "[7]", "result": 18},
      {"measurement": "t (top plateau of concentration-effect curve)", "setting": "[7]", "result": 100},
      {"measurement": "IC50", "setting": "[8]; read-out: abs. IC50", "result": 8.14, "unit": "µM"},
      {"measurement": "IC50", "setting": "[8]; read-out: rel. IC50", "result": 7.03, "unit": "µM"},
      {"measurement": "b (bottom plateau of concentration-effect curve)", "setting": "[8]", "result": 22},
      {"measurement": "t (top plateau of concentration-effect curve)", "setting": "[8]", "result": 95},
      {"measurement": "IC50", "setting": "[9]; read-out: abs. IC50", "result": 5.87, "unit": "µM"},
      {"measurement": "IC50", "setting": "[9]; read-out: rel. IC50", "result": 5.67, "unit": "µM"},
      {"measurement": "b (bottom plateau of concentration-effect curve)", "setting": "[9]", "result": 18},
      {"measurement": "t (top plateau of concentration-effect curve)", "setting": "[9]", "result": 101},
      {"measurement": "IC50", "setting": "[10]; read-out: abs. IC50", "result": 16.9, "unit": "µM"},
      {"measurement": "IC50", "setting": "[10]; read-out: rel. IC50", "result": 16.9, "unit": "µM"},
      {"measurement": "b (bottom plateau of concentration-effect curve)", "setting": "[10]", "result": 3},
      {"measurement": "t (top plateau of concentration-effect curve)", "setting": "[10]", "result": 98},
      {"measurement": "IC50", "setting": "[11]; read-out: abs. IC50", "result": 8.81, "unit": "µM"},
      {"measurement": "IC50", "setting": "[11]; read-out: rel. IC50", "result": 8.77, "unit": "µM"},
      {"measurement": "b (bottom plateau of concentration-effect curve)", "setting": "[11]", "result": 17},
      {"measurement": "t (top plateau of concentration-effect curve)", "setting": "[11]", "result": 89},
      {"measurement": "IC50", "setting": "[12]; read-out: abs. IC50", "result": 5.84, "unit": "µM"},
      {"measurement": "IC50", "setting": "[12]; read-out: rel. IC50", "result": 5.74, "unit": "µM"},
      {"measurement": "b (bottom plateau of concentration-effect curve)", "setting": "[12]", "result": 7},
      {"measurement": "t (top plateau of concentration-effect curve)", "setting": "[12]", "result": 96}
    ]}
  ]
}
